According to US20200255492A1, “LEPTIN PEPTIDES AND THEIR USE FOR TREATING NEUROLOGICAL DISORDERS” (UNIVERSITY OF DUNDEE, priority 2017, published 2020):

Legend:
SH-SY5Y = test: Cell survival with Aβ1-42 and leptin (22-56) (data not shown); assay type: cell-based, human
Description: The human neuroblastoma cell line, SH-SY5Y (ECACC, UK) was maintained in Dulbecco's Modified Eagle Medium supplemented with glucose ([…]) and 10% (v/v) cosmic calf serum (Fisher Scientific, UK) at 37° C. in a humidified atmosphere of 5% CO2, 95% air and allowed to reach 70-80% confluence before seeding. Cells (passage 10-18) were plated at 10 000 cells per well in 96 well tissue culture plates (Nunc, VWR, UK) and at a density of 2×10^5 cells in 35 mm dishes for protein extraction. To induce differentiation, cells were cultured in DMEM supplemented with glucose ([…]), 1% (v/v) cosmic calf serum and 10 μM retinoic acid for 5 days. Thereafter they were incubated in DMEM supplemented with glucose ([…]), serum replacement 2 (2%; Sigma, UK) and 18 μM 5-fluorodeoxyuridine to inhibit proliferation of undifferentiated cells. […]
The concentration of lactate dehydrogenase (LDH) in the culture medium or the mitochondrial activity within cells was used to monitor the level of cell death, as previously (Oldreive and Doherty 2010). […] Plates were washed 5-10 times in dH2O and cells solubilised in 100 μl dimethyl sulfoxide (DMSO) before reading the absorbance on a Biohit BP100 plate reader. For all assays, data is expressed as percentage relative to control, untreated wells to normalize for differences in plating density between individual experiments. […]

mice = test: Murine episodic-like memory test with hexamers; assay type: in vivo; details: IP 7.8 nM/ml; tested 45 minutes post-injection; vs saline
Description: FIG. 24. Bar chart of the quantification of the fluorescent signal per cell following thioflavin S staining of neuronal cultures 96 hours after seeding with 1 μM Amyloid (Ab1-42). Cultures were established in triplicate on 3 separate occasions and statistical significance relative to control untreated cultures is denoted by *** where P<0.001 (A). […] 3 groups of mice (n=8 per group) were IP injected with saline (control) on 7.8 nM/ml leptin116-121 or […]. Memory performance was tested 45 minutes post-injection. Statistical significance relative to saline-injected animals is denoted by * where P<0.05. […] Leptin levels were determined by ELISA, using a commercially-supplied kit (Sigma, UK) and using blood serum harvested 24 hours post injection.
Further to this we have evaluated the effects of these hexamer peptides on episodic memory in mice. There is an 8 fold increase in episodic memory performance following treatment with leptin116-121 or […] (FIG. 24B). This implies that both leptin hexamers enhance the ability of the mice to recognise the presence of a novel object within the test arena.

[1] = system: leptin-deficient ob/ob mice; details: cited from earlier work
C57/BL6 mice = test: Object-place-context (OPC) recognition task, episodic-like memory; assay type: in vivo; details: 100 μl IP of 7.8 nM/ml 30 min prior to testing
Description: FIG. 7A, FIG. 7B, FIG. 7C and FIG. 7D show Leptin (116-130) enhances episodic-like memory. FIG. 7A: object-place-context task used to assess episodic-like memory. There are 2 sample phases in which mice are exposed to different copies of 2 different objects (star and hexagon) and allowed to explore for 3 min. In the test phase they see 2 new copies of 1 of the objects. The arrow points to the object that has not been previously seen in that place within that context. FIG. 7B: mean±SEM discrimination index for the 3 groups. *P<0.05. FIG. 7C: total exploration time in the test phase is not different between groups. FIG. 7D: exploration of the novel and familiar objects in the test phase; treatment with leptin or the leptin fragment (116-130) enhanced performance on the episodic-like memory test.
To further assess its therapeutic potential we next asked if this fragment has similar cognitive enhancing properties to the whole leptin molecule. Previous studies indicate that leptin enhances hippocampal-dependent memory (Oomura et al. 2006; Farr et al. 2006), whereas resistance to lep-tin results in impaired spatial memory (Li et al. 2002). We used the object-place-context (OPC) recognition task which models human episodic memory, the first cognitive process to be compromised in the early stages of AD (Swainson et al. 2001). […]

Substance	increase in episodic memory performance (mice) [fold]	body weight [1]	food intake [1]	performance (discrimination index) in episodic-like OPC task (C57/BL6 mice)	also measured
Aβ1-42: amyloid beta 1-42, toxin used in the AD models [reference compound]					survival following Aβ1-42 treatment (SH-SY5Y; Aβ1-42 alone): 41.2±5.8 % survival
CSLPQT (listed as Mus musculus) [leptin (117-122)]	8				
SCSLPQ (listed as Mus musculus) [leptin (116-121)]	8	reduced food intake and body weight	reduced food intake and body weight		
SCSLPQTSGLQKPES (listed as Mus musculus) [leptin (116-130)]		reduced food intake and body weight	reduced food intake and body weight	enhanced performance on the task relative to the control group	
leptin (22-56): leptin fragment amino acids 22-56 (Bachem), comparison fragment (VPIQKVQDDTKTLIKTIVTRINDISHTQSVSSKQK; UniProt P41159 22-56, looked up, fragment) [reference compound]					survival in Aβ1-42 treated cells (SH-SY5Y; Aβ1-42 with 10 nM leptin (22-56)): 48.6±9.3%
leptin: the metabolic hormone leptin, whole (full length) leptin molecule; human leptin from Sigma in SH-SY5Y work				enhanced performance on the task relative to the control group	
